How the values were obtained:
Plasmodium falciparum [1] = test: Antimalarial activity against chloroquine-sensitive Plasmodium falciparum 3D7; assay type: functional; conditions: read-out: ED50 (the source's name)
Plasmodium falciparum [2] = test: Antimalarial activity against chloroquine-resistant Plasmodium falciparum K1; assay type: functional; conditions: read-out: ED50 (the source's name)

CCN(CC)CCCC(C)Nc1ccnc2cc(Cl)ccc12 (configuration not stated) [CHLOROQUINE]
EC50 (Plasmodium falciparum [1]): 8.52 nM
EC50 (Plasmodium falciparum [2]): 290 nM
